pIC50: −log10 of the molar value.
Columns and labels:
Type in all cases: cell-based
EGFR V3 [1] = molecular target: T1, EGFR V3 (Homo sapiens, UniProt P00533, DELINS30-297G); assay: Activity for inhibiting EGFR (Table A), EGFR V3 (EGFR-Viii); settings: read-out: EGFR V3, potency code (IC50)
T1 construct: expressed in transfected cells; host or cells: BaF3 (murine pro-B), retroviral pMXs-IRES-Blasticidin

EGFR WT [2] = molecular target: T2, EGFR WT (Homo sapiens, UniProt P00533); assay: Activity for inhibiting EGFR (Table A), EGFR WT; settings: read-out: EGFR WT, potency code (IC50)
EGFR WT [3] = molecular target: T2, EGFR WT; assay: BaF3 cell proliferation assay, EGFR WT (Table A); settings: potency code, 3 days, CellTiterGlo, read-out: EGFR WT (Activity for Inhibiting EGFR)
Method: (§1) Retroviral Production: EGFR mutants were subcloned into pMXs-IRES-Blasticidin (RTV-016, Cell Biolabs, San Diego, Calif.). Retroviral expression vector retrovirus was produced by transient transfection of HEK 293T cells with the retroviral EGFR mutant expression vector pMXs-IRES-Blasticidin (RTV-016, Cell Biolabs), pCMV-Gag-Pol vector and pCMV-VSV-G-Envelope vector. Briefly, HEK 293T/17 cells were plated in 100 mm collagen coated plate (354450, Corning Life Sciences, Tewksbury, Mass.) (4×10^5 per plate) and incubated overnight. The next day, retroviral plasmids (3 μg of EGFR mutant, 1.0 μg of pCMV-Gag-Pol and 0.5 μg pCMV-VSV-G) were mixed in 500 μl of Optimem (31985, Life Technologies). The mixture was incubated at room temperature for 5 min and then added to Optimem containing transfection reagent Lipofectamine (11668, Invitrogen) and incubated for 20 minutes. Mixture was then added dropwise to HEK 293T cells. The next day the medium was replaced with fresh culture medium and retrovirus was harvested @ 24 and 48 hrs.
(§2) Generation of EGFR mutant stable cell lines: BaF3 cells (1.5E5 cells) were infected with 1 ml of viral supernatant supplemented with 8 μg/ml polybrene by centrifuging for 30 min at 1000 rpm. Cells were placed in a 37° C. incubator overnight. Cells were then spun for 5 minutes to pellet the cells. Supernatant was removed and cells re-infected a fresh 1 ml of viral supernatant supplemented with 8 μg/ml polybrene by centrifuging for 30 min at 1000 rpm. Cells were placed in 37° C. incubator overnight. […] After 48 hours cells were selected for retroviral infection in 10 μg/ml Blasticidin for one week. Blasticidin resistant populations were washed twice in phosphate buffered saline before plating in media lacking IL-3 to select for IL-3 independent growth.
(§3) EC50 values were determined with the same application.

HER2 S310F [4] = molecular target: T3, HER2 S310F (Homo sapiens, UniProt P04626, S310F); assay: Activity for inhibiting HER2 (Table B), HER2 S310F; settings: read-out: HER2 S310F, potency code (IC50)
T3 construct: expressed in transfected cells; host or cells: BaF3 (murine pro-B)
Method: as §3

HER2 YVMA [5] = molecular target: T4, HER2 YVMA (Homo sapiens, UniProt P04626, INS775YVMA); assay: Activity for inhibiting HER2 (Table B), HER2 YVMA; settings: read-out: HER2 YVMA, potency code (IC50)
T4 construct: expressed in transfected cells; host or cells: BaF3 (murine pro-B)
Method: as §3

EGFR V3 [6] = molecular target: T1, EGFR V3; assay: BaF3 cell proliferation assay, EGFR V3 (Table A); settings: potency code, 3 days, CellTiterGlo, read-out: EGFR V3 (Activity for Inhibiting EGFR)
Method: as §1, §2, §3

HER2 YVMA [7] = molecular target: T4, HER2 YVMA; assay: BaF3 cell proliferation assay, HER2 YVMA (Table B); settings: potency code, 3 days, CellTiterGlo, read-out: HER2 YVMA (Activity for Inhibiting HER2)
HER2 S310F [8] = molecular target: T3, HER2 S310F; assay: BaF3 cell proliferation assay, HER2 S310F (Table B); settings: potency code, 3 days, CellTiterGlo, read-out: HER2 S310F (Activity for Inhibiting HER2)

T4 sequence (P04626 with tags, fused parts or gaps INS775YVMA): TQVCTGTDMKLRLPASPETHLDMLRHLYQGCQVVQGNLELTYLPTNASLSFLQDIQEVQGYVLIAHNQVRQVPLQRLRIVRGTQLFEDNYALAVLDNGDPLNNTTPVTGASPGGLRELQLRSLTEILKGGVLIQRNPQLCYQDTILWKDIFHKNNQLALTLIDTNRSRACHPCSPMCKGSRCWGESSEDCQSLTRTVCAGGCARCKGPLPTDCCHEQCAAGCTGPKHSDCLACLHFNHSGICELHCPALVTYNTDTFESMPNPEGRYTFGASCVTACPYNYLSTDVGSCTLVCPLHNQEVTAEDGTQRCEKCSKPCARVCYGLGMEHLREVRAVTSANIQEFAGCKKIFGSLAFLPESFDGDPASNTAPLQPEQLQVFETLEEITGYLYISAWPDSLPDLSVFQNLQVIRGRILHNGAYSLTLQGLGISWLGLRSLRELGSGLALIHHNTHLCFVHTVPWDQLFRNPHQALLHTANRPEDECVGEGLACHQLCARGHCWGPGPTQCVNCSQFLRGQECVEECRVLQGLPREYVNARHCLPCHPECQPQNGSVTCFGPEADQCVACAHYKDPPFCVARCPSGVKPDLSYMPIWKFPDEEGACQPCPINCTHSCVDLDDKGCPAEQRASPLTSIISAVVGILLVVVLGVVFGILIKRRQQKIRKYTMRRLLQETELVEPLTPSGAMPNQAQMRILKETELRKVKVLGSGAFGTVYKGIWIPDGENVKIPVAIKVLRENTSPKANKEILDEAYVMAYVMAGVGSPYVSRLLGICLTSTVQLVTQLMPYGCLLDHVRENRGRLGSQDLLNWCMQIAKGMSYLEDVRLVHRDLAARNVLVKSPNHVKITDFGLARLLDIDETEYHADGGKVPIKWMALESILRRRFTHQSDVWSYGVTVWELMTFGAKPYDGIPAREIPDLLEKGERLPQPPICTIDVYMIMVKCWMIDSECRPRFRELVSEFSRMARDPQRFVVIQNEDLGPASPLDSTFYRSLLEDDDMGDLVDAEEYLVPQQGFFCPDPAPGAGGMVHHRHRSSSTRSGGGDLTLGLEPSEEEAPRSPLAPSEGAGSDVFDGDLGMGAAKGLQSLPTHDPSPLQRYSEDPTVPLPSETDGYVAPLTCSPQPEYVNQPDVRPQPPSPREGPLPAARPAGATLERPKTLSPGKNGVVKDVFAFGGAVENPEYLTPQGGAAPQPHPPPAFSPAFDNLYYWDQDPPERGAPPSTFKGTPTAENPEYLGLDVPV
T2 sequence (P00533 25-1210 N540K): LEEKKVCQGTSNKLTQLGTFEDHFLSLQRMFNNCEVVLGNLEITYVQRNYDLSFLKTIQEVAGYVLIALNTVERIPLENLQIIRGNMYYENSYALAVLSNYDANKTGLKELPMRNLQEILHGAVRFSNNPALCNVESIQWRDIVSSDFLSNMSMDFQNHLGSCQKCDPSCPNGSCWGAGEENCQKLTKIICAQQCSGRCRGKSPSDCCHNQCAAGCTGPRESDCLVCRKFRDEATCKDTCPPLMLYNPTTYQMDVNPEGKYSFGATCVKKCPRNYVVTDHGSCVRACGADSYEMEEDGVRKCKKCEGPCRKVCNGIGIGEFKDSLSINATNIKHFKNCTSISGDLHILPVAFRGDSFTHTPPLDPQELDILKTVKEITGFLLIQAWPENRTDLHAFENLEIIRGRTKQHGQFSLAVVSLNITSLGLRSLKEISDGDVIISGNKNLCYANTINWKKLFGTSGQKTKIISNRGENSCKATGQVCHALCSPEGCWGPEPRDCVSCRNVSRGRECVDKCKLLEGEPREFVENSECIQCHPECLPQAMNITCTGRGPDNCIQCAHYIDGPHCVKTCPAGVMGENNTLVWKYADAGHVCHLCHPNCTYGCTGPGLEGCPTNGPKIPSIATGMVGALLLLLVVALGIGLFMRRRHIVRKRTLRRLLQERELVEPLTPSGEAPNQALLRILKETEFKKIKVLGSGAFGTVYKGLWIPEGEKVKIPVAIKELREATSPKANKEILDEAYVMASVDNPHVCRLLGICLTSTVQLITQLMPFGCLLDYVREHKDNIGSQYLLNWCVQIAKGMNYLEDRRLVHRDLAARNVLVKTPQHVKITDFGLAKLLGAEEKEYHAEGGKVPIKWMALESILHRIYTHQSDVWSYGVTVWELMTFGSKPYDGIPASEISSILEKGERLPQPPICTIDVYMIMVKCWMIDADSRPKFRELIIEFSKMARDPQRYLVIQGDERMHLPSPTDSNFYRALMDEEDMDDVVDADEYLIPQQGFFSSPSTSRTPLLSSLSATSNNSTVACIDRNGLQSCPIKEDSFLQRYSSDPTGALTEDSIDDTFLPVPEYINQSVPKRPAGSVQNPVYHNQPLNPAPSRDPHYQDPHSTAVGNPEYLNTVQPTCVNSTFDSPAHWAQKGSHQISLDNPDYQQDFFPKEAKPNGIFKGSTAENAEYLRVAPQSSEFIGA
T1 sequence (P00533 with tags, fused parts or gaps DELINS30-297G): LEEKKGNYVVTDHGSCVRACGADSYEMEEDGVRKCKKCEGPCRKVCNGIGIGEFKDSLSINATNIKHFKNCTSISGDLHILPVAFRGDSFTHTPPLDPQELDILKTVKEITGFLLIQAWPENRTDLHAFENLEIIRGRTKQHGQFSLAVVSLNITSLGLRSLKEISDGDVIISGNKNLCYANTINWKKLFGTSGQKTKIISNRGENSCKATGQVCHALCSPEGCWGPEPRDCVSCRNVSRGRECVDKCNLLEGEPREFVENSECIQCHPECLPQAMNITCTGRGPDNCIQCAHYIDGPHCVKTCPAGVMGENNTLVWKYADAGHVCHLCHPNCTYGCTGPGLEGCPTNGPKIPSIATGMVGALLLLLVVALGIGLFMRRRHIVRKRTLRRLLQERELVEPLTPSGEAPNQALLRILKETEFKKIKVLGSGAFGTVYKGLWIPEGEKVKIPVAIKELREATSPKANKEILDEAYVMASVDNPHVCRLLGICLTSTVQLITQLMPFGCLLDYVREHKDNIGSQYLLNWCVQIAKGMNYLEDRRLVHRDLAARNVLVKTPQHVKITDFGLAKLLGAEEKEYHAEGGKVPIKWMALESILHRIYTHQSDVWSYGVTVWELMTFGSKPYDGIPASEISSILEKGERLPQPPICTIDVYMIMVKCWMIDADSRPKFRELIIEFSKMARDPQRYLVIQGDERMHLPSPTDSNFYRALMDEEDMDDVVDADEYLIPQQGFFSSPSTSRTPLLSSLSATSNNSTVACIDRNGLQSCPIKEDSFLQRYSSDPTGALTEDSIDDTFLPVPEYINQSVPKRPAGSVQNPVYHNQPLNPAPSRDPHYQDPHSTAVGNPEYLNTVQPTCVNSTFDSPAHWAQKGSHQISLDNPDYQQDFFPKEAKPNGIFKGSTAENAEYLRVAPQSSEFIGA
T3 sequence (P04626 23-1255 S310F): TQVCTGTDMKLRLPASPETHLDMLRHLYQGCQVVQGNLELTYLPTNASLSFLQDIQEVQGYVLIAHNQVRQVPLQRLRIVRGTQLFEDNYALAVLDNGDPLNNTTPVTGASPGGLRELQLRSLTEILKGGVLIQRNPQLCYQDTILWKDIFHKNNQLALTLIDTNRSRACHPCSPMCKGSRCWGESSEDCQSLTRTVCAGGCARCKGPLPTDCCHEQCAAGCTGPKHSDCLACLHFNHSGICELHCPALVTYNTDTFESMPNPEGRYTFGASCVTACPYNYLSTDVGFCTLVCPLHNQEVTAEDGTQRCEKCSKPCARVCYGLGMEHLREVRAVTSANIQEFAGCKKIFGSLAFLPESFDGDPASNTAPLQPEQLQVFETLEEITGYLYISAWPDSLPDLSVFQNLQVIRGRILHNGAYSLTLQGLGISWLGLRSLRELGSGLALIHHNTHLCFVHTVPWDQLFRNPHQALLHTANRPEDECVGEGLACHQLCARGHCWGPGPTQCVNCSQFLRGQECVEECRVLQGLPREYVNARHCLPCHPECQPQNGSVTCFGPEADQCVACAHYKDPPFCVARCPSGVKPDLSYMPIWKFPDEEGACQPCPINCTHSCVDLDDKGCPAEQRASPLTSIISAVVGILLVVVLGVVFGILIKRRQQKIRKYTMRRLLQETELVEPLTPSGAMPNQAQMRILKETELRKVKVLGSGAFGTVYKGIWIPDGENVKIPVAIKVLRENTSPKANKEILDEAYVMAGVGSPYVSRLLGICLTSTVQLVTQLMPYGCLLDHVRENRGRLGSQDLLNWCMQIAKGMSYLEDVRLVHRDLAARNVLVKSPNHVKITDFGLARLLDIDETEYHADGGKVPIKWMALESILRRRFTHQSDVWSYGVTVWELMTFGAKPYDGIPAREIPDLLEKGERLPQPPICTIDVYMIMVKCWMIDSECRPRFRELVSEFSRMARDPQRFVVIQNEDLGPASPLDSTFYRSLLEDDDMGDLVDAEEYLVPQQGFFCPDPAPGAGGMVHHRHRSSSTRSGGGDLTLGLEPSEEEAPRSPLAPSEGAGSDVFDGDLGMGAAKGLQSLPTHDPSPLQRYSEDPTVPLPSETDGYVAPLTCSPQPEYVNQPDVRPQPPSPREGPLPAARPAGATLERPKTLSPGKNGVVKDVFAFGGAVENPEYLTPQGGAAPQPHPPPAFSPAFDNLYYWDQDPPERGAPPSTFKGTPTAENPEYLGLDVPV

Compound	pIC50 (EGFR V3 [1])	pIC50 (EGFR WT [2])	pIC50 (EGFR WT [3])	pIC50 (HER2 S310F [4])	pIC50 (HER2 YVMA [5])	pIC50 (EGFR V3 [6])	pIC50 (HER2 YVMA [7])	pIC50 (HER2 S310F [8])
CC#CC(=O)Nc1cc2c(Nc3ccc(OCc4ccccn4)c(Cl)c3)ncnc2cc1C#CC1[C@H]2CN(C)C[C@@H]12 (stereo partly drawn) [compound 107, N-(4-((3-chloro-4-(pyridin-2-ylmethoxy)phenyl)amino)-7-(((1R,5S,6s)-3-methyl-3-azabicyclo[3.1.0]hexan-6-yl)ethynyl)quinazolin-6-yl)but-2-ynamide]	7.00 to 7.30	6.52 to 6.70	6.52 to 6.70	7.70 to 8.00	7.30 to 7.52	7.00 to 7.30	7.30 to 7.52	7.70 to 8.00
CC#CC(=O)Nc1cc2c(Nc3ccc(Oc4ccccc4)cc3)ncnc2cc1C#C[C@@H]1[C@H]2CN(C)C[C@@H]12 [compound 108, N-(7-(((1R,5S,6s)-3-methyl-3-azabicyclo[3.1.0]hexan-6-yl)ethynyl)-4-((4-phenoxyphenyl)amino)quinazolin-6-yl)but-2-ynamide]	6.70 to 7.00	6.00 to 6.30	6.00 to 6.30	7.00 to 7.30	6.00 to 6.30	6.70 to 7.00	6.00 to 6.30	7.00 to 7.30
C=CC(=O)Nc1cc2c(Nc3ccc(OCc4ccccn4)c(Cl)c3)ncnc2cc1OCCN1CCC(O)CC1 [compound 111, N-(4-((3-chloro-4-(pyridin-2-ylmethoxy)phenyl)amino)-7-(2-(4-hydroxypiperidin-1-yl)ethoxy)quinazolin-6-yl)acrylamide]	7.30 to 7.52	6.30 to 6.52	6.30 to 6.52	7.30 to 7.52	6.70 to 7.00	7.30 to 7.52	6.70 to 7.00	7.30 to 7.52
C=CC(=O)Nc1cc2c(Nc3ccc(OCc4ccccn4)c(Cl)c3)ncnc2cc1OCCN1CCC(OC)CC1 [compound 114, N-(4-((3-chloro-4-(pyridin-2-ylmethoxy)phenyl)amino)-7-(2-(4-methoxypiperidin-1-yl)ethoxy)quinazolin-6-yl)acrylamide]	7.30 to 7.52	6.30 to 6.52	6.30 to 6.52	7.30 to 7.52	6.70 to 7.00	7.30 to 7.52	6.70 to 7.00	7.30 to 7.52
C=CC(=O)Nc1cc2c(Nc3ccc(OCc4ccccn4)c(Cl)c3)ncnc2cc1OCC1CCN1C (stereo not drawn) [compound 116, N-(4-((3-chloro-4-(pyridin-2-ylmethoxy)phenyl)amino)-7-((1-methylazetidin-2-yl)methoxy)quinazolin-6-yl)acrylamide]	7.30 to 7.52	6.00 to 6.30	6.00 to 6.30	7.30 to 7.52	6.52 to 6.70	7.30 to 7.52	6.52 to 6.70	7.30 to 7.52
C=CC(=O)Nc1cc2c(Nc3ccc(Oc4ccccc4)c(C)c3)ncnc2cc1C#C[C@@H]1[C@H]2CN(C)C[C@@H]12 [compound 117, N-(7-(((1R,5S,6s)-3-methyl-3-azabicyclo[3.1.0]hexan-6-yl)ethynyl)-4-((3-methyl-4-phenoxyphenyl)amino)quinazolin-6-yl)acrylamide]	6.70 to 7.00	6.00 to 6.30	6.00 to 6.30	7.00 to 7.30	6.70 to 7.00	6.70 to 7.00	6.70 to 7.00	7.00 to 7.30
C=CC(=O)Nc1cc2c(Nc3ccc(OCc4ccccn4)c(Cl)c3)ncnc2cc1OCCC1COCCN1C (stereo not drawn) [compound 120, N-(4-((3-chloro-4-(pyridin-2-ylmethoxy)phenyl)amino)-7-(2-(4-methylmorpholin-3-yl)ethoxy)quinazolin-6-yl)acrylamide]	7.30 to 7.52	< 6.00	< 6.00	7.70 to 8.00	7.00 to 7.30	7.30 to 7.52	7.00 to 7.30	7.70 to 8.00
C=CC(=O)Nc1cc2c(Nc3ccc(OCc4ccccn4)c(Cl)c3)ncnc2cc1OCC12CCC(CC1)N2C [compound 122, N-(4-((3-chloro-4-(pyridin-2-ylmethoxy)phenyl)amino)-7-((7-methyl-7-azabicyclo[2.2.1]heptan-1-yl)methoxy)quinazolin-6-yl)acrylamide]	7.00 to 7.30	6.00 to 6.30	6.00 to 6.30	6.70 to 7.00	6.00 to 6.30	7.00 to 7.30	6.00 to 6.30	6.70 to 7.00

Other lines, results leading:

pIC50 (EGFR V3 [1])	pIC50 (EGFR WT [2])	pIC50 (EGFR WT [3])	pIC50 (HER2 S310F [4])	pIC50 (HER2 YVMA [5])	pIC50 (EGFR V3 [6])	pIC50 (HER2 YVMA [7])	pIC50 (HER2 S310F [8])	Compound
7.70 to 8.00	7.30 to 7.52	7.30 to 7.52	7.70 to 8.00	7.00 to 7.30	7.70 to 8.00	7.00 to 7.30	7.70 to 8.00	C=C(F)C(=O)Nc1cc2c(Nc3ccc(OCc4ccccn4)c(Cl)c3)ncnc2cc1OCCN1CCOCC1 [compound 109, N-(4-((3-chloro-4-(pyridin-2-ylmethoxy)phenyl)amino)-7-(2-morpholinoethoxy)quinazolin-6-yl)-2-fluoroacrylamide]
7.52 to 7.70	6.52 to 6.70	6.52 to 6.70	7.30 to 7.52	6.52 to 6.70	7.52 to 7.70	6.52 to 6.70	7.30 to 7.52	C=CC(=O)Nc1cc2c(Nc3ccc(OCc4ccccn4)c(Cl)c3)ncnc2cc1OC1CCN(C)CC1 [compound 110, N-(4-((3-chloro-4-(pyridin-2-ylmethoxy)phenyl)amino)-7-((1-methylpiperidin-4-yl)oxy)quinazolin-6-yl)acrylamide]
6.70 to 7.00	6.30 to 6.52	6.30 to 6.52	6.30 to 6.52	< 6.00	6.70 to 7.00	< 6.00	6.30 to 6.52	COC/C=C/C(=O)Nc1cc2c(Nc3ccc(OCc4ccccn4)c(Cl)c3)ncnc2cc1OCCN1CCOCC1 [compound 112, (E)-N-(4-((3-chloro-4-(pyridin-2-ylmethoxy)phenyl)amino)-7-(2-morpholinoethoxy)quinazolin-6-yl)-4-methoxybut-2-enamide]
7.00 to 7.30	6.00 to 6.30	6.00 to 6.30	7.30 to 7.52	6.70 to 7.00	7.00 to 7.30	6.70 to 7.00	7.30 to 7.52	C=CC(=O)Nc1cc2c(Nc3ccc(OCc4ccccn4)c(Cl)c3)ncnc2cc1C#C[C@@H]1[C@H]2CN(C3COC3)C[C@@H]12 [compound 113, N-(4-((3-chloro-4-(pyridin-2-ylmethoxy)phenyl)amino)-7-(((1R,5S,6s)-3-(oxetan-3-yl)-3-azabicyclo[3.1.0]hexan-6-yl)ethynyl)quinazolin-6-yl)acrylamide]
7.30 to 7.52	6.52 to 6.70	6.52 to 6.70	7.30 to 7.52	7.00 to 7.30	7.30 to 7.52	7.00 to 7.30	7.30 to 7.52	C=CC(=O)Nc1cc2c(Nc3ccc(OCc4ccccn4)c(Cl)c3)ncnc2cc1OCCN1CC2(CCN2C)C1 [compound 115]
7.00 to 7.30	6.30 to 6.52	6.30 to 6.52	7.00 to 7.30	6.70 to 7.00	7.00 to 7.30	6.70 to 7.00	7.00 to 7.30	C=CC(=O)Nc1cc2c(Nc3ccc(OCc4ccccn4)c(Cl)c3)ncnc2cc1OCCN1CC2(CN(C)C2)C1 [compound 119, N-(4-((3-chloro-4-(pyridin-2-ylmethoxy)phenyl)amino)-7-(2-(6-methyl-2,6-diazaspiro[3.3]heptan-2-yl)ethoxy)quinazolin-6-yl)acrylamide]
6.70 to 7.00	< 6.00	< 6.00	7.30 to 7.52	6.30 to 6.52	6.70 to 7.00	6.30 to 6.52	7.30 to 7.52	C=CC(=O)Nc1cc2c(Nc3ccc(CC(=O)c4ccccn4)c(Cl)c3)ncnc2cc1O[C@@H]1CCN(C)C1 [compound 121]
